This note sets out measurements from PMC9516332 (Frontiers in Oncology, 2022).

What all share (assay): Kinase panel profiling at 1 µmol/L (MSA or IMAP), percentage inhibition
Common to all, as to type: biochemical

For assay [1], the target named is T1, panel of 255 wild-type kinases (Homo sapiens, UniProt Q92630).
T1 sequence (Q92630 1-601): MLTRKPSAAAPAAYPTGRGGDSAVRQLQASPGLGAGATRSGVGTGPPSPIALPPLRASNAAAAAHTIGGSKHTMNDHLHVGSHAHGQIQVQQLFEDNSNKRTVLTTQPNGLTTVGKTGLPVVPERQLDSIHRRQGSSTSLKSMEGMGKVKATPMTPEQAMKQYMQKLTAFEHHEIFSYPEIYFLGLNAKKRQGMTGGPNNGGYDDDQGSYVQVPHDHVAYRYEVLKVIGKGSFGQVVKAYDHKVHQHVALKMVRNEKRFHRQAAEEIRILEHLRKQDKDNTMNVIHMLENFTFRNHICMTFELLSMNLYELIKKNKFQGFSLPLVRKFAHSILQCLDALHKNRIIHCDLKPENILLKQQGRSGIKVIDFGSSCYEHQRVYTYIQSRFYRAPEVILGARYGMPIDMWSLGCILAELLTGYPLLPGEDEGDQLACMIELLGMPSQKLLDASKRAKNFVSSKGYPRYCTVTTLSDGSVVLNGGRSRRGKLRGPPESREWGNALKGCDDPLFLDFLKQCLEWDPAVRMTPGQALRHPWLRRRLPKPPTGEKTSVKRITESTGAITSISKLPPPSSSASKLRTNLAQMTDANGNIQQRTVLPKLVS
The conditions noted are these: kinase DYRK2; 1 µmol/L single concentration; read-out: %-inhibition at 1 µmol/L, DYRK2.

In assay [2] the target is T2, panel of 255 wild-type kinases (Homo sapiens, UniProt O14965).
T2 sequence (O14965 1-403): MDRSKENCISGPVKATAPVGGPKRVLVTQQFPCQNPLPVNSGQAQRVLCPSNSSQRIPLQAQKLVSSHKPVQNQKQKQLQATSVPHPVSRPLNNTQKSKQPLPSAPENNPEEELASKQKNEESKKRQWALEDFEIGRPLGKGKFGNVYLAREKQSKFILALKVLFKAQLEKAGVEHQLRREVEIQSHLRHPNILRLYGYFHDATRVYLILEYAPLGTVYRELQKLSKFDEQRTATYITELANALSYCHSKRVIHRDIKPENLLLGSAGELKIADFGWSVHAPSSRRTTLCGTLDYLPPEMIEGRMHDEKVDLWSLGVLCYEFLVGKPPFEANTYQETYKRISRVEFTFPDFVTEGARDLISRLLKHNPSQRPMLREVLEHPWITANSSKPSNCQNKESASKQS
Conditions: 1 µmol/L single concentration.

Assay [3] concerns the target panel of 255 wild-type kinases (Homo sapiens, UniProt Q9Y6E0). The conditions noted are these: MST3; 1 µmol/L single concentration; read-out: %-inhibition, MST3.
The target in assay [4] is panel of 255 wild-type kinases (Homo sapiens, UniProt P07333). Conditions: kinase FMS; 1 µmol/L single concentration; read-out: %-inhibition at 1 µmol/L, FMS.
Assay [5] deals with panel of 255 wild-type kinases (Homo sapiens, UniProt Q8IU85). Conditions: CaMK1δ kinase assay; 1 µmol/L single concentration; read-out: %-inhibition CaMK1δ.
The target in assay [6] is panel of 255 wild-type kinases (Homo sapiens, UniProt Q16644). Conditions: MAPKAPK3; 1 µmol/L single concentration; read-out: %-inhibition, MAPKAPK3.
The target in assay [7] is T3, panel of 255 wild-type kinases (Homo sapiens, UniProt O94806).
T3 sequence (O94806 1-890): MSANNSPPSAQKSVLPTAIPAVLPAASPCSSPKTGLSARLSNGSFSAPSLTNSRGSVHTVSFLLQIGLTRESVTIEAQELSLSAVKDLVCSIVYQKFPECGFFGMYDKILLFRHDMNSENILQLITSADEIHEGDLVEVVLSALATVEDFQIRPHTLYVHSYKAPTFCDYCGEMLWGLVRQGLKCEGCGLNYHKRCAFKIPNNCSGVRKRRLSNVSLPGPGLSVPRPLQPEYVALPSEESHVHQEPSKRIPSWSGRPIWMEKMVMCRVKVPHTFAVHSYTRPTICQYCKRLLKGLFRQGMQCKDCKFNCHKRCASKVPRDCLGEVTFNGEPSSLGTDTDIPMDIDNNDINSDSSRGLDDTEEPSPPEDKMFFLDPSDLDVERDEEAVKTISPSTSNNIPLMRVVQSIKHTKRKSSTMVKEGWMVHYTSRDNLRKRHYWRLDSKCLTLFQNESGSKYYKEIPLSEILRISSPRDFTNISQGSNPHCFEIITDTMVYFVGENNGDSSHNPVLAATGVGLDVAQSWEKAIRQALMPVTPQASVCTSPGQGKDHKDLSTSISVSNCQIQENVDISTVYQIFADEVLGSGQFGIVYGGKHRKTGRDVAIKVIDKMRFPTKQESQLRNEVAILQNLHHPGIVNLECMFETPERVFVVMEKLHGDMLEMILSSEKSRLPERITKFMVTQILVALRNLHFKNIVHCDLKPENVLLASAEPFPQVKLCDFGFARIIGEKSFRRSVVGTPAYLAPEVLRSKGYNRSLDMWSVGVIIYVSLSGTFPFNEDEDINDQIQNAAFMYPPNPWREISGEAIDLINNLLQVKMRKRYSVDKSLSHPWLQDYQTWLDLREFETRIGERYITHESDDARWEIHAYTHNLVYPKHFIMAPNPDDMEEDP
The conditions noted are these: kinase PKD3; 1 µmol/L single concentration; read-out: %-inhibition at 1 µmol/L, PKD3.

[8] abbreviates: AurA kinase assay, read-out: %-inhibition AurA.
Where [9] appears, read: AurA/TPX2 kinase assay, read-out: %-inhibition AurA/TPX2.

Like-named read-outs stand apart in the source and are kept apart here.

As to `CCN1CCN(c2ccc(Nc3cc(N(C)C(=O)Nc4c(Cl)c(OC)cc(OC)c4Cl)ncn3)cc2)CC1` [infigratinib], the inhibition at 1 µM in assay [1] is -3.43%; in assay [2] (setting [8]) it was -5.38%; in assay [2] (setting [9]), -10%; in assay [3], 7%; in assay [4] it was 96%; in assay [5] it was 2.23%. Besides, the results for the inhibition at 1 µM in assay [6] and in assay [7] were -17% and 11%, respectively.
Regarding `O=C(Nc1cnn2ccc(N3CCC[C@@H]3c3cc(F)ccc3F)nc12)N1CC[C@H](O)C1` [larotrectinib], the inhibition at 1 µM is 6% in assay [1]; -4.5% in assay [2] (setting [8]); -3% in assay [2] (setting [9]); 1.65% in assay [3]; -4.31% in assay [4]; 3.44% in assay [5]. Besides, the inhibition at 1 µM is -16% in assay [6] and 8% in assay [7].
Consider `C[C@H]1Oc2cc(cnc2N)-c2c(nn(C)c2C#N)CN(C)C(=O)c2ccc(F)cc21` [lorlatinib], for which the inhibition at 1 µM in assay [1] is 4.35%; in assay [2] (setting [8]), 21%; in assay [2] (setting [9]) it was 29%; in assay [3], -1.26%; in assay [4], 32%; in assay [5], 7%. Further, the inhibition at 1 µM is -10% in assay [6] and 1.46% in assay [7].
Take `CCN1C(=O)N(c2c(F)c(OC)cc(OC)c2F)Cc2cnc3[nH]c(CN4CCOCC4)cc3c21` [pemigatinib]: the inhibition at 1 µM in assay [1] is 12%; in assay [2] (setting [8]), 11%; in assay [2] (setting [9]), -4.43%; in assay [3], 80%; in assay [4], 93%; in assay [5], 17%. In addition, the inhibition at 1 µM in assay [6] was -12%; in assay [7], 14%.
On to `FC(F)(F)c1ccc(CNc2ccc(Cc3c[nH]c4ncc(Cl)cc34)cn2)cn1` [pexidartinib], for which the inhibition at 1 µM in assay [1] turned out to be 24%; in assay [2] (setting [8]), 44%; in assay [2] (setting [9]), 21%; in assay [3], 5%; in assay [4], 95%; in assay [5], 4%. Besides, the results for the inhibition at 1 µM in assay [6] and in assay [7] were -15% and -12%, respectively.
On to `CO[C@]1(C(=O)N[C@@H](C)c2ccc(-n3cc(F)cn3)nc2)CC[C@H](c2nc(C)cc(Nc3cc(C)[nH]n3)n2)CC1` [pralsetinib], for which the inhibition at 1 µM is -0.768% in assay [1]; 73% in assay [2] (setting [8]); 70% in assay [2] (setting [9]); 8% in assay [3]; 94% in assay [4]; -7.54% in assay [5]. In addition, the inhibition at 1 µM is -22% in assay [6] and 3% in assay [7].
Consider `CCn1c(=O)c(-c2cc(NC(=O)Nc3ccccc3)c(F)cc2Br)cc2cnc(NC)cc21` [ripretinib], for which the inhibition at 1 µM is 4.57% in assay [1]; -2% in assay [2] (setting [8]); -0.807% in assay [2] (setting [9]); -4% in assay [3]; 71% in assay [4]; 2.32% in assay [5]. In addition, the inhibition at 1 µM in assay [6] was -16%; in assay [7], 15%.
For `COc1ccc(CN2C3CC2CN(c2ccc(-c4cc(OCC(C)(C)O)cn5ncc(C#N)c45)cn2)C3)cn1` [selpercatinib], the inhibition at 1 µM in assay [1] came out at 66%; in assay [2] (setting [8]) it was 66%; in assay [2] (setting [9]) it was 71%; in assay [3], 6%; in assay [4] it was 79%; in assay [5], 9%. For the same compound, the figures for the inhibition at 1 µM in assay [6] and in assay [7] were -12% and 12%, respectively.
